From US9029092B2, “Solution phase homogeneous assays” (Beckman Coulter, Inc., priority 2009, dated 2015)
Where two headings read alike, the source gives them in different places.

What was measured:
[1] = tested on: PSA; experiment: Screening SSIA by homogeneous PSA immunoassay (anti-PSA-AK1 + anti-PSA-HRP); format: biochemical, human
Description: This example presents one method used for testing of candidate compounds for functionality as SSIA in assays of the present disclosure. Testing was conducted in a model screening immunoassay of the protein PSA. Tests were run using a 96-well microtiter plate format. A solution containing 30 μL of mouse anti-PSA-AK1 (66 ng), 30 μL of mouse anti-PSA-HRP conjugate (7.8 ng), 36 μL of human female serum, and 24 μL of PSA calibrator were pipetted into each well. The plate was incubated at 37° C. for 10 minutes. A 5 μL aliquot of the test compound (various concentrations) was added to each well. Chemiluminescence was triggered by the addition of 100 μL of a solution of a trigger solution whose composition is listed below. The chemiluminescent flash was integrated for 5 seconds after the addition of the trigger solution using a Luminoskan Asent® plate luminometer, (Thermo Fischer Scientific, Inc., Waltham, Mass.).
It is desirable that the improvement factor be at least 2 (S5/S0≧ about 20-30) and more desirable that improvement factor be at least 5 (S5/S0≧ about 50), yet more desirable that S5/S0 be ≧100 in the present screen.

[2] = tested on: biotinylated HRP; experiment: Model system for selection of SSIA (AK1/streptavidin BSA microparticles + biotinylated HRP); format: biochemical, horseradish; conditions: SSIA 100 μM final
Description: The model system uses a microparticle conjugated to BSA (bovine serum albumin) labeled with a […] and acridan ketenedithioacetal chemiluminescent label (AK1) as the chemiluminescent-labeled sbp, and biotinylated HRP as the activator-labeled specific binding pair. In the model system, varying amounts of Btn-HRP is added to the chemiluminescent-labeled specific binding pair at 0, 1, 10, 100 and 250 ng/mL. Additional unlabeled HRP is added to reach a total HRP of concentration of 500 ng/mL in each reaction mixture. The unlabeled HRP in combination with the activator-labeled sbp was provided to the chemiluminescent-labeled sbp microparticles to emulate sample. A compound for assessment as an SSIA was also added. This reaction mixture of the model system is then triggered by addition of trigger solution in a manner of assays of the present disclosure.
To prepare the chemiluminescent-labeled sbp on microparticles, Bovine Serum Albumin (BSA) was biotinylated with 4× molar excess of biotin-LC-sulfoNHS (Pierce Biotechnology Inc., Rockford, Ill., USA). Unbound reactants were removed via desalting or dialysis. The biotin-BSA was then reacted with a 5× molar excess of an NHS ester of acridan ketenedithioacetal AK1 in 20 mM sodium phosphate pH 7.2: DMSO 75:25, v/v) followed by desalting in the same buffer. The dual labeled (biotin and AK1) BSA was then coupled with tosyl activated M280 microparticles (Invitrogen Corporation, Carlsbad, Calif., USA) in a 0.1M borate buffer pH 9.5 at a concentration of about 20 μg of labeled BSA per mg of microparticles for 16-24 h at 40° C. After coupling the microparticles were stripped for 1 h at 40° C. with 0.2 M TRIS base, 2% SDS, pH˜11. The stripping process was repeated one additional time. Microparticles were then suspended in a 0.1% BSA/TRIS buffered saline (BSA/TBS) buffer and streptavidin (SA) was added at approximately 15 μg SA per mg microparticles. Streptavidin was mixed with the microparticles for 45-50 min at room temperature. The microparticles were then washed three times and suspended in the same BSA/TBS.
HRP, (Roche Diagnostics, Indianapolis, Ind., USA) was biotinylated with 4× molar excess of biotin-LC-sulfoNHS (Pierce Biotechnology Inc., Rockford, Ill., USA). Alternatively, 25× molar excess of biotin-PEO4-NHS may be used. Unbound reactants were removed via desalting or dialysis.
Each SSIA compound for assessment was solubilized in Buffer II at a concentration at least 10× of the working strength concentration.
25 μl of 1 mg/ml of dual-labeled (biotin and AK1) BSA M280 particles were mixed with 45 μl of working concentration SSIA in Buffer II. The assay volume brought to 85 μl by adding 15 μl of Buffer II. 15 μl of sample containing Btn-HRP:HRP at different ratios (The amount of biotinylated-HRP varied from 0, 1, 10, 100 and 250 ng/mL) was added. The reaction mixture was incubated for 30 min at 37° C., then 100 μL of trigger solution was added and the light intensity recorded. Total volume of reaction mixture, including trigger solution was 200 μL with a final concentration of 100 μM of SSIA.
The screening tests were performed using a modified DxI® Immunoassay System (Beckman Coulter, Inc. Brea, Calif.) as described above.

[3] = test compound final conc. […] ([…]), S5 = 129 ng PSA/mL vs zero PSA
[4] = test compound final conc. 0.244 mM (244 uM)
[5] = test compound final conc. 0.061 mM (61 uM)

| Structure (SMILES) | S5/S0 [1, 3] | further results |
| --- | --- | --- |
| Oc1cccnc1O | 41 | – |
| Nc1ccccc1O [drawing 97] | 649 | – |
| OCCO [Ethylene glycol] | – | S5/S0 [1]: 14 |
| O=C1O[C@H]([C@@H](O)CO)C(O)=C1O [drawing 128] | 10.3 | – |
| O=S([O-])[O-].[Na+].[Na+] [Na2SO3] | – | S5/S0 ([1]; test compound final conc. 15 uM): 59 |
| O=C1O[C@H]([C@@H](O)CO)C([O-])=C1O.[Na+] [ascorbate sodium salt (ascorbate anion), ascorbate sodium salt] | 495 | – |
| Nc1cc2ccccc2cc1O | – | S5/S0 [1, 4]: 67 |
| c1ccc2c(c1)Cc1ccccc1O2 | 4 | – |
| O=C1O[C@H]([C@@H](O)CO)C([O-])=C1O.[Na+] | 9.2 | – |
| CC1=C(O)C(=O)C(C)O1 (stereo not shown) | – | S5/S0 ([1]; test compound final conc. 1.25 mM): 237 |
| O=c1cc(O)c2ccccc2o1 | 17 | – |
| OB(O)c1cc(Cl)ccc1O | – | S5/S0 [1, 4]: 22 |
| N[C@@H](CCC(=O)N[C@@H](CS)C(=O)NCC(=O)O)C(=O)O [Glutathione] | 77 | light intensity, BTN-HRP0 ([2]; Btn-HRP 0 ng/mL, total HRP 500 ng/mL): 26,977; S1/S0 ([2]; Btn-HRP 1 ng/mL vs 0): 2.1; light intensity, BTN-HRP1 ([2]; Btn-HRP 1 ng/mL, total HRP 500 ng/mL): 55,719; S2/S0 ([2]; Btn-HRP 10 ng/mL vs 0): 92; light intensity, BTN-HRP10 ([2]; Btn-HRP 10 ng/mL, total HRP 500 ng/mL): 2,480,764; S3/S0 ([2]; Btn-HRP 100 ng/mL vs 0): 323.7; light intensity, BTN-HRP100 ([2]; Btn-HRP 100 ng/mL, total HRP 500 ng/mL): 8,733,068; S4/S0 ([2]; Btn-HRP 250 ng/mL vs 0): 369.4; light intensity, BTN-HRP250 ([2]; Btn-HRP 250 ng/mL, total HRP 500 ng/mL): 9,965,235; effectiveness as SSIA in the model system [2]: insuffient effectiveness |
| Nc1ccc(C(=O)O)cc1O [drawing 110] | 153 | – |
| O[C@@H](CS)[C@@H](O)CS [DTT] | – | S5/S0 ([1]; test compound final conc. 72 uM): 20 |
| C=CCc1ccc(O)c(OC)c1 | – | S5/S0 [1, 4]: 30 |
| Cc1ccc(O)c(O)c1 | 142 | – |
| O=c1c(O)c(-c2ccccc2)oc2ccccc12 | 13 | – |
| Nc1ccccc1S | 234 | – |

| Structure (SMILES) | S5/S0 [1, 3] | further results |
| --- | --- | --- |
| O=C1O[C@H]([C@H](O)CO)C(O)=C1O | 10.3 | – |
| O=S(=O)([O-])CCCOCCCN1c2ccccc2Cc2ccccc21.[Na+] | – | S5/S0 [1, 4]: 6 |
| O=C1O[C@H]([C@@H](O)CO)C(=O)C1=O | 26 | – |
| O=S(=O)([O-])CCCN1c2ccccc2Sc2ccccc21.[Na+] | – | S5/S0 [1, 4]: 50 |
| Nc1c(O)cc(S(=O)(=O)O)c2ccccc12 | 65 | – |
| Oc1ccc([C@@H]2Oc3cc(O)c(O)cc3C[C@@H]2O)cc1O | 323 | – |
| COc1ccccc1O | 13 | – |
| NNC(=O)c1ccccc1O | – | S5/S0 [1, 5]: 23 |
| O=C(c1ccccc1)C1c2ccccc2Nc2ccccc21 | 9 | – |
| Oc1ccc(O)c(Br)c1 | 570 | – |
| Oc1ccc(Cl)cc1O [drawing 108] | – | S5/S0 [1, 4]: 409 |
| O=C(O)c1ccc(O)c(O)c1 | 178 | – |
| COc1cc(C(C)(C)C)c(O)c(C(C)(C)C)c1 | 19 | – |
| Nc1cccc(Cl)c1O | – | S5/S0 [1, 4]: 300 |
| O=C(O)c1cc(O)c2ccccc2n1 | 6 | – |
| Nc1ncccc1O | 32 | – |
| Oc1cccc(O)c1O | 69 | – |
| Cn1ccnc1S | – | S5/S0 ([1]; test compound final conc. 36.7 mM): 102 |
| [N-]=[N+]=[N-].[Na+] [NaN3] | – | S5/S0 ([1]; test compound final conc. 34 uM): 19 |

| Structure (SMILES) | S5/S0 [1, 3] | further results |
| --- | --- | --- |
| O=C1C(O)=C(O)C(=O)C(O)=C1O | – | S5/S0 [1, 5]: 51 |
| COC1=C(O)C(=O)O[C@@H]1[C@@H](O)CO | 16 | – |
| Nc1cc(Cl)ccc1O | – | S5/S0 [1, 4]: 205 |
| O=C1C=C(O)C(=O)C=C1O | – | S5/S0 [1, 4]: 14 |
| O=c1c2ccccc2[nH]c2ccccc12 | 14 | – |
| Nc1cc(C[C@H](N)C(=O)O)ccc1O | – | S5/S0 [1, 4]: 448 |
| O=c1c(O)c(-c2ccccc2)oc2cc(O)ccc12 | 14 | – |
| Cc1cc(-c2cc(C)c(N)c(C)c2)cc(C)c1N [TMB] | – | S5/S0 [1, 5]: 20 |
| c1ccc2c(c1)Nc1ccccc1O2 [drawing 87] | 605 | – |
| N[C@@H](CS)C(=O)O [L-Cysteine] | 22 | – |
| O=C(O)/C(O)=C(/O)C(=O)O | 30 | – |
| O=C(O)c1cc(O)c(O)c(O)c1 | 135 | – |
| Cc1cc(CO)c(O)c(CO)c1 | 23 | – |
| Nc1ccc2ccccc2c1O | – | S5/S0 [1, 4]: 109 |
| O=S(=O)([O-])CCCN1c2ccccc2Cc2ccccc21.[Na+] | – | S5/S0 [1, 4]: 15 |
| Nc1ncc[nH]1 | – | S5/S0 ([1]; test compound final conc. 24.4 mM): 14 |
| O=C1C(O)=C(Cl)C(=O)C(O)=C1Cl | – | S5/S0 ([1]; test compound final conc. 0.031 mM): 7 |
| c1ccc2c(c1)Cc1ccccc1S2 | 9 | – |
| O=C(O)C1c2ccccc2Oc2ccccc21 | 7 | – |
